{"source": "patent US7829721B2", "about": "“Specific caspase-10 inhibitors” (Merck Patent GmbH, priority 2004, dated 2010)", "key": {"[1]": {"target": "T1, caspase 2 (Homo sapiens, UniProt P42575)", "T1 sequence (P42575 170-325 limits assumed)": "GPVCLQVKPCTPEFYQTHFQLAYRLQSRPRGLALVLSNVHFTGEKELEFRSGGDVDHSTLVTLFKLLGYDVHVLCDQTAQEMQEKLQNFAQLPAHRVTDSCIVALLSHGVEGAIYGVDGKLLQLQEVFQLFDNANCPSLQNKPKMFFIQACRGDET", "T1 sequence (P42575 348-452 limits assumed)": "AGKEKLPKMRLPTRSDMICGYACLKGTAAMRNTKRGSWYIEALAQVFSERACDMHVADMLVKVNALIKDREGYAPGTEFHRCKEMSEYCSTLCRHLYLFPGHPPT", "test": "Caspase inhibition, delayed-time fluorescence method (europium substrate Eu-W1284-CDEVDK-QSy-7)"}, "[2]": {"target": "T2, caspase 3 (Homo sapiens, UniProt P42574)", "T2 sequence (P42574 29-175 limits assumed)": "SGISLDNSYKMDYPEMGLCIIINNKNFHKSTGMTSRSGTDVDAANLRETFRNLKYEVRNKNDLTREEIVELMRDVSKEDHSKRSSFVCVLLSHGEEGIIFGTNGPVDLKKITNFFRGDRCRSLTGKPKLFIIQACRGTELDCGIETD", "T2 sequence (P42574 176-277 limits assumed)": "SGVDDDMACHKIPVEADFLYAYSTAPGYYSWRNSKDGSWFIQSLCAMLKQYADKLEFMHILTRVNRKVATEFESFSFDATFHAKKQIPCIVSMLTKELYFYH", "test": "Caspase inhibition, delayed-time fluorescence method (europium substrate Eu-W1284-CDEVDK-QSy-7)"}, "[3]": {"target": "T3, caspase 6 (Homo sapiens, UniProt P55212)", "T3 sequence (P55212 24-179 limits assumed)": "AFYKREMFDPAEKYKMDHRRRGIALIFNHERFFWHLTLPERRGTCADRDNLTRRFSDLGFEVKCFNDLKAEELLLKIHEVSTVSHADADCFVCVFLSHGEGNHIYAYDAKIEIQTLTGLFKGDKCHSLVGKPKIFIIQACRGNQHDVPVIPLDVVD", "T3 sequence (P55212 194-293 limits assumed)": "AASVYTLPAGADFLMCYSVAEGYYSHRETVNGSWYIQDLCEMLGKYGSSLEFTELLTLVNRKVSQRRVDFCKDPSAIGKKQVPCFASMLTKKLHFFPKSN", "test": "Caspase inhibition, delayed-time fluorescence method (europium substrate Eu-W1284-CVEIDK-QSy-7)"}, "[4]": {"target": "caspase 8 (Homo sapiens, UniProt Q14790)", "sequence (Q14790 217-374 limits assumed)": "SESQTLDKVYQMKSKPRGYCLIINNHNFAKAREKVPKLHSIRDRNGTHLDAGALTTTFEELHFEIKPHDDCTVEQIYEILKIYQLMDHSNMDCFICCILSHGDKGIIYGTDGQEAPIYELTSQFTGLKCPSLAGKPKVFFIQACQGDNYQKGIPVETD", "sequence (Q14790 385-479 limits assumed)": "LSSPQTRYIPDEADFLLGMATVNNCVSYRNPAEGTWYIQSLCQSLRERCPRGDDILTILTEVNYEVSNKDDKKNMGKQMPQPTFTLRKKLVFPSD", "test": "Caspase inhibition, delayed-time fluorescence method (europium substrate Eu-W1284-CIETDK-QSy-7)", "method": "(§1) The substrate used is a tetrapeptide specific to this caspase, having at one of its ends a fluorescent europium marker (W1284) and at the other end a europium chelate fluorescence quencher (QSy-7): Eu-W1284-CIETDK-QSy-7.\n(§2) The caspase cleaves the substrate, releasing the quencher. Thus, by excitation at 340 nm, the signal emitted by the fluorescence of the europium is read by WALLAC Victor^2 reader at 615 nm.\nThey are ready for use or can be divided into aliquots and stored at −80° C. […] 20 μl of this solution are distributed per well of the assay plate. […] The assay is performed with 1 U of enzyme per well, by distributing 20 μl of the diluted solution per well. • The standard inhibitors: The standard inhibitors are dissolved in DMSO to a concentration of 10 mM. They are tested at IC20 and at IC50 on the caspases they inhibit (see following table). The concentrations mentioned in the table are the final concentrations in the assay wells.\n(§3) They are then distributed in the wells using this solution to reach the final concentration of IC20 or IC50, i.e. 3 μl in 33 μl of final reaction volume (dilution 1/11). Thus, the final concentration of DMSO in the well is 0.3% (v/v) final. […] An intermediate dilution (1/6.6) is pre-pared in DMSO by diluting 10 μl of the concentrated solution in 66 μl of DMSO (final volume). […] The inhibitors are then distributed in the wells to reach the final screening concentration (10 μM), i.e. 3 μl in 33 μl of final reaction volume (dilution 1/11) and a final concentration of DMSO of 0.3% (v/v) in the well.\nThe volumes and the protocol were optimised for automated use.\n(§4) The incubation takes place for 3 hours 30 minutes at room temperature before reading the fluorescence in delayed time on the WALLAC Victor^2 reader with the filters corresponding to the fluorescence of europium (excitation filter: 340 nm, emission filter: 615 nm).\n(§5) The inhibitors are diluted using solutions with concentrations of less than 20 mM in DMSO, and then prediluted in the caspase buffer."}, "[5]": {"target": "T4, caspase 9 (Homo sapiens, UniProt P55211)", "T4 sequence (P55211 1-315 limits assumed)": "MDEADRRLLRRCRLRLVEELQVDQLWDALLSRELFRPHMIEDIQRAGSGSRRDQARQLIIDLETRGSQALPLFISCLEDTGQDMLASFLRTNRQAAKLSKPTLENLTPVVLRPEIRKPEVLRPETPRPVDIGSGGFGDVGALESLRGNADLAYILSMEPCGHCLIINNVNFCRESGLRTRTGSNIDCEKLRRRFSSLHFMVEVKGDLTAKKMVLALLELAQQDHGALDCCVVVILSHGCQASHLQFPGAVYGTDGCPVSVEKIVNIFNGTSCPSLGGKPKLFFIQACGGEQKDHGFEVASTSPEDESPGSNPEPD", "T4 sequence (P55211 331-416 limits assumed)": "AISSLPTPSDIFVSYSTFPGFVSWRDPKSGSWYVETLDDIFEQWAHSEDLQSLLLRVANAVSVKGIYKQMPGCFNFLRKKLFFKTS", "test": "Caspase inhibition, delayed-time fluorescence method (europium substrate Eu-W1284-CLEHDK-QSy-7)"}, "[6]": {"target": "T5, caspase-10 (Homo sapiens, UniProt Q92851)", "T5 sequence (Q92851 220-415 limits assumed)": "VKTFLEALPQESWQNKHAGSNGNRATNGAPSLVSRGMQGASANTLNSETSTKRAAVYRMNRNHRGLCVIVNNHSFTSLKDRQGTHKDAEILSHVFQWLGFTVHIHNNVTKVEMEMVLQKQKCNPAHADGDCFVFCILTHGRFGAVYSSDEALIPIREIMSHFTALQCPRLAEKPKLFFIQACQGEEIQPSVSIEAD", "T5 sequence (Q92851 416-521 limits assumed)": "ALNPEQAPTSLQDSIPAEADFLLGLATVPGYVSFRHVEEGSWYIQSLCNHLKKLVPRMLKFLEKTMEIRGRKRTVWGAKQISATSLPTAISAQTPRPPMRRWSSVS", "test": "Caspase inhibition, delayed-time fluorescence method (europium substrate Eu-W1284-CIETDK-QSy-7)", "method": "as §1, §2\n20 μl of this solution are distributed per well of the assay plate. […] The assay is performed with 1 U of enzyme per well, by distributing 20 μl of the diluted solution per well. • The standard inhibitors: The standard inhibitors are dissolved in DMSO to a concentration of 10 mM.\nas §3, §4, §5"}, "[7]": {"system": "diabetic rats", "conditions": "cited from earlier work"}}}
{"smiles": "COc1ccc(-c2ccc(Cl)cc2CC(=O)O)cc1", "note": "[Example 16, (4-chloro-4′-methoxybiphenyl-2-yl)acetic acid]", "values": [{"measurement": "IC50", "setting": "[1]", "value": "> 200", "unit": "µM"}, {"measurement": "IC50", "setting": "[2]", "value": "> 200", "unit": "µM"}, {"measurement": "IC50", "setting": "[3]", "value": "> 200", "unit": "µM"}, {"measurement": "IC50", "setting": "[4]", "value": "> 200", "unit": "µM"}, {"measurement": "IC50", "setting": "[5]", "value": "> 200", "unit": "µM"}, {"measurement": "IC50", "setting": "[6]", "value": 9, "unit": "µM"}]}
{"smiles": "O=C(O)Cc1cc(Cl)ccc1-c1ccc(C(F)(F)F)cc1", "note": "[Example 15, [4-chloro-4′-(trifluoromethyl)biphenyl-2-yl]acetic acid]", "values": [{"measurement": "IC50", "setting": "[1]", "value": "> 200", "unit": "µM"}, {"measurement": "IC50", "setting": "[2]", "value": "> 200", "unit": "µM"}, {"measurement": "IC50", "setting": "[3]", "value": "> 200", "unit": "µM"}, {"measurement": "IC50", "setting": "[4]", "value": "> 200", "unit": "µM"}, {"measurement": "IC50", "setting": "[5]", "value": "> 200", "unit": "µM"}, {"measurement": "IC50", "setting": "[6]", "value": 23.6, "unit": "µM"}]}
{"smiles": "Cc1ncc(CO)c(CN)c1O", "note": "[pyridoxamine]", "values": [{"measurement": "death of the pericytes", "setting": "[7]; diabetic rats treated for 29 weeks, versus untreated rats", "value": "prevents the death of the pericytes"}]}
{"smiles": "O=C(O)Cc1cc(Cl)ccc1-c1ccc(Cl)cc1", "note": "[Example 14, (4,4′-dichlorobiphenyl-2-yl)acetic acid]", "values": [{"measurement": "IC50", "setting": "[1]", "value": "> 200", "unit": "µM"}, {"measurement": "IC50", "setting": "[2]", "value": "> 200", "unit": "µM"}, {"measurement": "IC50", "setting": "[3]", "value": "> 200", "unit": "µM"}, {"measurement": "IC50", "setting": "[4]", "value": "> 200", "unit": "µM"}, {"measurement": "IC50", "setting": "[5]", "value": "> 200", "unit": "µM"}, {"measurement": "IC50", "setting": "[6]", "value": 10.1, "unit": "µM"}]}
{"smiles": "Cc1ccc(-c2ccc(Cl)cc2CC(=O)O)cc1", "note": "[Example 12, (4-chloro-4′-methylbiphenyl-2-yl)acetic acid]", "values": [{"measurement": "IC50", "setting": "[1]", "value": "> 200", "unit": "µM"}, {"measurement": "IC50", "setting": "[2]", "value": "> 200", "unit": "µM"}, {"measurement": "IC50", "setting": "[3]", "value": "> 200", "unit": "µM"}, {"measurement": "IC50", "setting": "[4]", "value": "> 200", "unit": "µM"}, {"measurement": "IC50", "setting": "[5]", "value": "> 200", "unit": "µM"}, {"measurement": "IC50", "setting": "[6]", "value": 13.1, "unit": "µM"}]}
{"smiles": "N=C(N)NN", "note": "[aminoguanidine]", "values": [{"measurement": "reduced formation of acellular capillaries", "setting": "[7]; diabetic rats treated for 26 weeks", "value": 80, "unit": "%"}]}
